# Patent US20240124410A1, “SMALL MOLECULES AND THEIR USE AS MALT1 INHIBITORS” (University of Pittsburgh - Of the Commonwealth System of …, priority 2021, published 2024)
# Assays:
# [1] = molecular target: T1, BCL10-MALT1 interaction (Homo sapiens, UniProt Q9UDY8); assay: ELISA-based protein-protein interaction assay, BCL10-MALT1 (FIG. 2F, 2H); His-tagged recombinant human full-length Bcl10 on plate, GST-tagged recombinant human full-length MALT1; set-up: GST-tagged recombinant human full-length MALT1 protein; GST; purchased Novus Biologicals H00010892-P01; conditions: compound preincubated with 100 ng GST-MALT1 for 1 hour, 100 ng His-Bcl10 on plate, one-site binding fit, read-out: IC50 for inhibition of BCL10-MALT1 binding (ELISA)
# T1 sequence (Q9UDY8 1-824): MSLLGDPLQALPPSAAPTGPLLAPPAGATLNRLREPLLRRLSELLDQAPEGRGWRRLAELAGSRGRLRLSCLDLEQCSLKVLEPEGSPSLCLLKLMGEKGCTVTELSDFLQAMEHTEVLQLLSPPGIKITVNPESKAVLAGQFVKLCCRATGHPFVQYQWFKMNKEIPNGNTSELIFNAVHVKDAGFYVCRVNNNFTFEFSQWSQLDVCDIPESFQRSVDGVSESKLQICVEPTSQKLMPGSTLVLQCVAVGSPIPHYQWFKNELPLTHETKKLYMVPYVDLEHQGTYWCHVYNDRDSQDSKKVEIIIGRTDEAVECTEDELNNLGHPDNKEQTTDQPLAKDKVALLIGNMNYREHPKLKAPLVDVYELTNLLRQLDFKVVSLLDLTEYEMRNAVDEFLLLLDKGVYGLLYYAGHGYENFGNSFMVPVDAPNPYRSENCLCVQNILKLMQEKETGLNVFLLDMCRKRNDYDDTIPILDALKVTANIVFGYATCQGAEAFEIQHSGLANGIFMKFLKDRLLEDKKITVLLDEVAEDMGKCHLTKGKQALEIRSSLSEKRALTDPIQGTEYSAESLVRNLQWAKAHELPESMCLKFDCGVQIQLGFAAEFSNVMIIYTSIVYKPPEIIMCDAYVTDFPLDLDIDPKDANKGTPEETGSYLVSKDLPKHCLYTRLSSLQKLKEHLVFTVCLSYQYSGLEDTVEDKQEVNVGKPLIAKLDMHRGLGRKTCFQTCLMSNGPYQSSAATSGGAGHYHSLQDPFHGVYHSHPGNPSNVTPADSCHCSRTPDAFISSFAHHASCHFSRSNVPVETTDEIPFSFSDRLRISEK
# From the text: FIG. 2. In silico screening identifies small molecules targeting the predicted BCL10-binding groove within MALT1 (Ig1-2). (A) We performed a structure-guided in silico screen of 3 million compounds, using the LibDock program from Discovery Studio 3.5, in order to identify candidate molecules that could potentially fit within the identified groove in the MALT1 Ig1-2 domain. Lipinski's rule of five filters (LipinskiRo5) were applied to enrich for compounds with drug-like properties. Potential compound hits were then screened for their ability to disrupt the MALT1-BCL10 interaction using SPR analysis. 9 candidate compounds were then subjected to a second, ELISA-based MALT1-BCL10 interaction assay, identifying 2 compounds that could disrupt the interaction in both SPR and ELISA assays. M1i-124 and M1i-1255 are the two compounds identified to disrupt the BCL10-MALT1 interaction. M1i-124 became our lead compound and M1i-1255 is partially characterized in FIG. 8. (B) Structure of M1i-124. (C) Model of M1i-124 docked onto the MALT1 Ig1-2 domain groove (PDB 3K0W). […] (E) SPR analysis was performed to determine the IC50 for M1i-124 disruption of the BCL10-MALT1 interaction in a dose-response assay. (F) ELISA analysis confirmed that M1i-124 disrupts the interaction between BCL10 and MALT1 in dose dependent fashion (left). […] Circles highlight sites that differ from parent compound, M1i-124. […]
# [2] = tested on: IL-2 secretion; assay: IL-2 secretion (ELISA); type: cell-based, human; conditions: dose-response
# Description: Expression of cytokines from cell culture supernatants was measured 24h after treatment with 0, 0.01, 0.03, 0.1, 0.3, 1, or 3 uM of compounds using the following ELISA kits according to the manufacturer's instructions: Human IL-2 ELISA (BioLegend Cat #431804), Human IL-6 ELISA (BioLegend Cat #430504), and Human IL-10 ELISA (BioLegend Cat #430604).
structure (smiles),measurement,setting,value
COc1ccc(CNS(=O)(=O)c2ccc(Cc3ccc(S(=O)(=O)NCc4ccc(OC)cc4)cc3)cc2)cc1 [M1i-124d1],IC50,[1],8.45 µM
same,IL-2 secretion,[2],dose-dependent inhibition
